The format of data set [1] is physicochemical. The conditions noted are these: Tris-hydrochloric acid buffer (pH 7.5) 50 mmol/L, magnesium chloride 5 mmol/L, evaluation compound 1 µmol/L, 37°C, 60 minutes, average of duplicate. An outline of the steps:
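Stability in buffer assessed as brexpiprazole formation: duplicate reactions at 37°C, started by adding compound to pre-warmed solution, quenched at 0 or 60 min with internal-standard-containing acetonitrile/isopropanol (4:1). Calibration curves covered 0.01, 0.1 and 1 µmol/L of compound and brexpiprazole.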

The nature of the next data set: in vitro. Type of data set: cell-based, human. The note with it: human; 300 µmol/L, about 24 hours, PMA-differentiated HL-60 cells, LDH activity; no-treatment group 0%, cell lysis buffer-treated group 100%; read-out: cytotoxicity (%) Evaluation compound results. The procedure:
An HL-60 cell line (human acute promyelocytic leukemia cells) was successively cultured in RPMI 1640 containing 20% fetal bovine serum (FBS) at 37°C in 95% atmosphere/5% CO2. Before evaluation, the cells were pre-cultured for about 72 hours in the presence of 10 nM phorbol 12-myristate 13-acetate (PMA) to induce macrophage-like differentiation.
Evaluation compounds were dissolved in DMSO to obtain 30 mmol/L solutions (or suspensions). Each DMSO solution was diluted 100-fold with RPMI 1640 containing 2% FBS (final concentration of the compound: 300 µmol/L) to obtain a treatment solution. The culture supernatant of the differentiated HL-60 cells was removed, and each treatment solution was added and cultured for about 24 hours, followed by cytotoxicity evaluation.
The activity of lactate dehydrogenase (LDH) was measured in the treatment solutions exposed to the cells for about 24 hours by using a commercial kit (Cytotoxicity LDH Assay Kit-WST, Dojindo Laboratories) and a plate reader (Tecan Infinite M1000). The obtained measurement values were used to calculate cytotoxicity (%) as comparison values for each evaluation compound-treated group, with the no-treatment group taken as 0% and the cell lysis buffer-treated group taken as 100%. The test was conducted in triplicate in three wells each, and the average values were used as adopted values.

Molecules are shown by their SMILES.

Consider `CC(=O)OCCCOP(=O)([O-])OC[N+]1(CCCCOc2ccc3ccc(=O)[nH]c3c2)CCN(c2cccc3sccc23)CC1` [EX 15, 3-acetoxypropyl ((4-(benzo[b]thiophen-4-yl)-1-(4-((2-oxo-1,2-dihydroquinolin-7-yl)oxy)butyl)piperazin-1-ium-1-yl)methyl)phosphate], for which, in data set [1], the “Concentration of brexpiprazole formed” value turned out to be 0 nM and the “Concentration of evaluation compound decreased” value is 0 nM. For the same compound, the cytotoxicity at 24 h, 300 µM in the data set “in vitro” is 3%.
Consider `CC(C)OCCOP(=O)([O-])OC[N+]1(CCCCOc2ccc3ccc(=O)[nH]c3c2)CCN(c2cccc3sccc23)CC1` [EX 13, (4-(benzo[b]thiophen-4-yl)-1-(4-((2-oxo-1,2-dihydroquinolin-7-yl)oxy)butyl)piperazin-1-ium-1-yl)methyl (2-isopropoxyethyl)phosphate], for which, in data set [1], the “Concentration of brexpiprazole formed” value came to 0 nM and the “Concentration of evaluation compound decreased” value was 30 nM. Besides, in “in vitro”, the cytotoxicity at 24 h, 300 µM was -5%.
On the same counts, the results for `O=c1ccc2ccc(OCCCC[N+]3(COP(=O)([O-])OCCCO)CCN(c4cccc5sccc45)CC3)cc2[nH]1` [EX 6, (4-(benzo[b]thiophen-4-yl)-1-(4-((2-oxo-1,2-dihydroquinolin-7-yl)oxy)butyl)piperazin-1-ium-1-yl)methyl (3-hydroxypropyl) phosphate] are 0 nM, -110 nM and 16%.
As for `O=c1ccc2ccc(OCCCC[N+]3(COP(=O)([O-])OCCO)CCN(c4cccc5sccc45)CC3)cc2[nH]1` [EX 9, (4-(benzo[b]thiophen-4-yl)-1-(4-((2-oxo-1,2-dihydroquinolin-7-yl)oxy)butyl)piperazin-1-ium-1-yl)methyl (2-hydroxyethyl)phosphate], the cytotoxicity at 24 h, 300 µM in “in vitro” was -2%.
In the case of `CCOC(=O)COP(=O)([O-])OC[N+]1(CCCCOc2ccc3ccc(=O)[nH]c3c2)CCN(c2cccc3sccc23)CC1` [EX 8, (4-(benzo[b]thiophen-4-yl)-1-(4-((2-oxo-1,2-dihydroquinolin-7-yl)oxy)butyl)piperazin-1-ium-1-yl)methyl (2-ethoxy-2-oxoethyl)phosphate], in data set [1], the “Concentration of brexpiprazole formed” value is 10 nM and the “Concentration of evaluation compound decreased” value amounted to 70 nM. The cytotoxicity at 24 h, 300 µM in the data set “in vitro” turned out to be 15%.
On the same counts, the results for `CC(C)OP(=O)([O-])OC[N+]1(CCCCOc2ccc3ccc(=O)[nH]c3c2)CCN(c2cccc3sccc23)CC1` [EX 5, (4-(benzo[b]thiophen-4-yl)-1-(4-((2-oxo-1,2-dihydroquinolin-7-yl)oxy)butyl)piperazin-1-ium-1-yl)methyl isopropyl phosphate] are 0 nM, 70 nM and -4%.
In the same order, the values of `COCCOCCOP(=O)([O-])OC[N+]1(CCCCOc2ccc3ccc(=O)[nH]c3c2)CCN(c2cccc3sccc23)CC1` [EX 7, (4-(benzo[b]thiophen-4-yl)-1-(4-((2-oxo-1,2-dihydroquinolin-7-yl)oxy)butyl)piperazin-1-ium-1-yl)methyl (2-(2-methoxyethoxy)ethyl)phosphate] are 0 nM, -60 nM and -4%.
In the same order, the values of `O=C(OCOP(=O)([O-])OC[N+]1(CCCCOc2ccc3ccc(=O)[nH]c3c2)CCN(c2cccc3sccc23)CC1)OC1CCCCC1` [EX 19, (4-(benzo[b]thiophen-4-yl)-1-(4-((2-oxo-1,2-dihydroquinolin-7-yl)oxy)butyl)piperazin-1-ium-1-yl)methyl ((((cyclohexyloxy)carbonyl)oxy)methyl)phosphate] are 0 nM, -70 nM and 16%.
Turning to `CCCCOCCOCCOP(=O)([O-])OC[N+]1(CCCCOc2ccc3ccc(=O)[nH]c3c2)CCN(c2cccc3sccc23)CC1` [EX 99], in data set [1], the “Concentration of brexpiprazole formed” value was 0 nM and the “Concentration of evaluation compound decreased” value was 0 nM. Also, the cytotoxicity at 24 h, 300 µM in “in vitro” is -6%.
As for `O=C(OCCCOC1CCCCO1)OCOP(=O)([O-])OC[N+]1(CCCCOc2ccc3ccc(=O)[nH]c3c2)CCN(c2cccc3sccc23)CC1` (stereo not drawn) [EX 140], in data set [1], the “Concentration of brexpiprazole formed” value was 0 nM and the “Concentration of evaluation compound decreased” value is -20 nM.
Consider `COc1ccc(C(=O)OCCCCCCOP(=O)([O-])OC[N+]2(CCCCOc3ccc4ccc(=O)[nH]c4c3)CCN(c3cccc4sccc34)CC2)cc1` [EX 58], for which, in data set [1], the “Concentration of brexpiprazole formed” value worked out at 0 nM and the “Concentration of evaluation compound decreased” value stood at 40 nM.
On the same counts, the results for `CCOC(=O)CC(C)(C)CC(=O)OCOP(=O)([O-])OC[N+]1(CCCCOc2ccc3ccc(=O)[nH]c3c2)CCN(c2cccc3sccc23)CC1` [EX 32] are 0 nM and 10 nM.
In the same order, the values of `O=c1ccc2ccc(OCCCC[N+]3(COP(=O)([O-])OCC(F)F)CCN(c4cccc5sccc45)CC3)cc2[nH]1` [EX 115] are 0 nM and 50 nM.
On the same counts, the results for `COCCOCOCCCCOP(=O)([O-])OC[N+]1(CCCCOc2ccc3ccc(=O)[nH]c3c2)CCN(c2cccc3sccc23)CC1` [EX 53] are 0 nM and 60 nM.
In the case of `CCC(=O)OCOP(=O)([O-])OC[N+]1(CCCCOc2ccc3ccc(=O)[nH]c3c2)CCN(c2cccc3sccc23)CC1` [EX 120], in data set [1], the “Concentration of brexpiprazole formed” value came out at 0 nM and the “Concentration of evaluation compound decreased” value worked out at 50 nM.
For `O=c1ccc2ccc(OCCCC[N+]3(COP(=O)([O-])OCCCCCCCCCO)CCN(c4cccc5sccc45)CC3)cc2[nH]1` [EX 46], in data set [1], the “Concentration of brexpiprazole formed” value was determined as 0 nM and the “Concentration of evaluation compound decreased” value was found to be 40 nM.
In the same order, the values of `CCNP(=O)([O-])OC[N+]1(CCCCOc2ccc3ccc(=O)[nH]c3c2)CCN(c2cccc3sccc23)CC1` [EX 151] are 0 nM and -10 nM.
In the same order, the values of `CCCCOP(=O)([O-])OC[N+]1(CCCCOc2ccc3ccc(=O)[nH]c3c2)CCN(c2cccc3sccc23)CC1` [EX 89] are 0 nM and -70 nM.
On the same counts, the results for `CC(C)COP(=O)([O-])OC[N+]1(CCCCOc2ccc3ccc(=O)[nH]c3c2)CCN(c2cccc3sccc23)CC1` [EX 90] are 0 nM and -30 nM.
Turning to `O=C(OCOP(=O)([O-])OC[N+]1(CCCCOc2ccc3ccc(=O)[nH]c3c2)CCN(c2cccc3sccc23)CC1)N1CCOCC1` [EX 160], in data set [1], the “Concentration of brexpiprazole formed” value amounted to 0 nM and the “Concentration of evaluation compound decreased” value was -10 nM.
In the same order, the values of `O=c1ccc2ccc(OCCCC[N+]3(COP(=O)([O-])OCC4(CO)CC4)CCN(c4cccc5sccc45)CC3)cc2[nH]1` [EX 47] are 0 nM and 0 nM.
For the compound `COCCOC(=O)CCCCCCCCCCC(=O)OCOP(=O)([O-])OC[N+]1(CCCCOc2ccc3ccc(=O)[nH]c3c2)CCN(c2cccc3sccc23)CC1` [EX 77], in data set [1], the “Concentration of brexpiprazole formed” value is 0 nM and the “Concentration of evaluation compound decreased” value is 110 nM.
For the compound `CCOC(=O)[C@H](C)OP(=O)([O-])OC[N+]1(CCCCOc2ccc3ccc(=O)[nH]c3c2)CCN(c2cccc3sccc23)CC1` [EX 104], in data set [1], the “Concentration of brexpiprazole formed” value worked out at 0 nM and the “Concentration of evaluation compound decreased” value came to 200 nM.
On the same counts, the results for `CCOC(=O)CCCCCOC(=O)OCOP(=O)([O-])OC[N+]1(CCCCOc2ccc3ccc(=O)[nH]c3c2)CCN(c2cccc3sccc23)CC1` [EX 144] are 0 nM and 120 nM.
As to `CCCOCCOP(=O)([O-])OC[N+]1(CCCCOc2ccc3ccc(=O)[nH]c3c2)CCN(c2cccc3sccc23)CC1` [EX 95], in data set [1], the “Concentration of brexpiprazole formed” value stood at 0 nM and the “Concentration of evaluation compound decreased” value is -10 nM.
On the same counts, the results for `O=C(OCOP(=O)([O-])OC[N+]1(CCCCOc2ccc3ccc(=O)[nH]c3c2)CCN(c2cccc3sccc23)CC1)C12CC3CC(CC(C3)C1)C2` [EX 124] are 0 nM and 100 nM.
In the same order, the values of `O=c1ccc2ccc(OCCCC[N+]3(COP(=O)([O-])OCCOCC4CC4)CCN(c4cccc5sccc45)CC3)cc2[nH]1` [EX 52] are 0 nM and -40 nM.
On the same counts, the results for `COCCOCCOCCOC(=O)OCOP(=O)([O-])OC[N+]1(CCCCOc2ccc3ccc(=O)[nH]c3c2)CCN(c2cccc3sccc23)CC1` [EX 35] are 0 nM and -20 nM.
